According to patent US20160153991A1, “Synbodies for Detection of Human Norovirus” (priority 2013, published 2016):

What was measured:
Type in all cases: binding, Norovirus
nVLP GII.4 = assay: Surface plasmon resonance (SPR) screening of optimized peptides against GII.4; details: unpurified peptides against nVLP GII.4; for kd-1: SPR dissociation rate; for % Stability / Avg Binding (Spot 1/2): SPR
Procedure: These 96 peptides were synthesized and tested unpurified against GII.4 via surface plasmon resonance (SPR), a sample of which is shown in FIG. 3. Peptides candidates were analyzed and selected for improved binding and slower dissociation rate. Finally, a list of 10 peptide candidates with improved binding and slower dissociation rates were chosen to construct bivalent peptide affinity reagents (synbodies).

GII.4 Minerva VLP = tested on: GII.4 Minerva VLP
GII.4 Sydney VLP = GII.4 Sydney VLP (VP1 identity 95%)

Substance | kd-1 (nVLP GII.4) [s] | % Stability (nVLP GII.4) [%] | Avg Binding (Spot 1/2) (nVLP GII.4) | Enrichment Factor from 1 ng/μL solution (GII.4 Minerva VLP; GII.4 Minerva VLP (VP1 identity 100%), 1 ng/μL solution) | enrichment of VLP (in words) (GII.4 Minerva VLP; either GII.4 Minerva or both GII.4 Minerva and GII.4 Sydney) | Enrichment Factor from 1 ng/μL solution (GII.4 Sydney VLP)
DWARKNNKRKMNFNLGWGSC [Mut Peptide-60, optimized peptide] | 0.00487 | 44 | 134.3 | – | – | –
RWHRVDLRSHTELPRYIGSC [nVLP-6WT] | 0.00513 | 37 | 175.7 | – | – | –
LLYNKTFPHGRWSPSYPGSC [nVLP-1WT] | 0.00785 | 25 | 71.5 | – | – | –
VWARKNNKRKKDFNAGWGSC [Mut Peptide-53, optimized peptide] | 0.00408 | 51 | 188.8 | – | – | –
RWHRVKLRSHTELNRYIGSC [Mut Peptide-92, optimized peptide] | 0.00355 | 57 | 229.5 | – | – | –
AWARSNNSRSKAFNLGWGSC [Mut Peptide-81, optimized peptide] | 0.00455 | 45 | 127.9 | – | – | –
Syn 6-6: synbody 6-6 from Table 2; scaffold not stated (Table 2 lists both nVLP6-6-1571 and nVLP6-6MAP2) (RWHRVDLRSHTELPRYIGSC) | – | – | – | 16 | enrichment | n.e.
RWVRVKLRSHTKLRYIGSC [Mut Peptide-94, optimized peptide] | 0.00294 | 63 | 358.2 | – | – | –
SWARSNNKRSKAFNLGWGSC [Mut Peptide-78, optimized peptide] | 0.00431 | 46 | 168.8 | – | – | –
DWARSNTSRSMDFNLGWGSC [nVLP-2WT] | 0.0233 | – | 2.5 | – | – | –
RWVRVKLRSHTELNRYIGSC [Mut Peptide-93, optimized peptide] | 0.00332 | 60 | 274.2 | – | – | –
